From patent US10689367B2, “Triazole pyridyl compounds as agonists of the APJ receptor” (AMGEN INC., priority 2016, dated 2020) come the findings set out here.

The target of this assay is human APJ receptor (Homo sapiens (Human), UniProt P35414). Put plainly: [35S]GTPγS binding assay on membranes from CHO cells stably expressing human APJ receptor. Type of assay: biochemical. Conditions: membranes of CHO cells stably expressing human APJ receptor, read-out: Activity hAPJ SPA EC50 IP. The method, then: The human APJ receptor was cloned by polymerase chain reaction and the gene encoding the receptor was subcloned in pFLAG-CMV™-3 expression vector (Sigma, Saint Louis, Mo. USA) in-house at Amgen. A GTPγS binding assay was performed on membranes prepared from CHO cells stably expressing human APJ receptor. The optimum experimental conditions for the concentrations of GDP, MgCl2, and NaCl in the assay buffer were initially determined. […] Incubation was at RT for 90 min and the microplate was read using a ViewLux™ ultra HTS Microplate Imager (PerkinElmer, Inc.). All the results presented are means of several independent experiments and analyzed by non-linear regression methods using the commercially available program Prism (GraphPad, San Diego, Calif.) providing the EC50 values detailed in Table 27.
human APJ receptor, sequence (P35414 whole entry): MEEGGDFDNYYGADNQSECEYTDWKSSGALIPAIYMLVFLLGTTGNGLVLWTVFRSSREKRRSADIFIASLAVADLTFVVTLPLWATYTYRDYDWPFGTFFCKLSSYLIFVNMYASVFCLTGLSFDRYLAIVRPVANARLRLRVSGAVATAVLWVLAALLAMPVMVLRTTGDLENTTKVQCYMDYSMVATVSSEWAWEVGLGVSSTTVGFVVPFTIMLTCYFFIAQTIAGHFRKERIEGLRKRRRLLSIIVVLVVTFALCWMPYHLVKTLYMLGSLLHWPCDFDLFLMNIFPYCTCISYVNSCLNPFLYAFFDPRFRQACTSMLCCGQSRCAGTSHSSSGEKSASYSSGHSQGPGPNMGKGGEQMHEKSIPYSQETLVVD
For the compound `CO[C@H](c1ncc(Cl)cn1)[C@H](C)S(=O)(=O)Nc1nnc(-c2cncc(C)c2)n1C1CC12CC2` (mixture of isomers) [Example 150.0, (1R,2S)-1-(5-Chloropyrimidin-2-yl)-1-methoxy-N-(5-(5-methylpyridin-3-yl)-4-((R)-spiro[2.2]pentan-1-yl)-4H-1,2,4-triazol-3-yl)propane-2-sulfonamide and (1R,2S)-1-(5-chloropyrimidin-2-yl)-1-methoxy-N-(5-(5-methylpyridin-3-yl)-4-((S)-spiro[2.2]pentan-1-yl)-4H-1,2,4-triazol-3-yl)propane-2-sulfonamide], the EC50 is 100 nM. As to `COc1cccc(-c2nnc(NS(=O)(=O)[C@@H](C)[C@H](OC)c3ncc(Cl)cn3)n2C2CC2(F)F)n1` (mixture of isomers) [Example 156.0, (1R,2S)-1-(5-Chloropyrimidin-2-yl)-N-(4-((S)-2,2-difluorocyclopropyl)-5-(6-methoxypyridin-2-yl)-4H-1,2,4-triazol-3-yl)-1-methoxypropane-2-sulfonamide and (1R,2S)-1-(5-chloropyrimidin-2-yl)-N-(4-((R)-2,2-difluorocyclopropyl)-5-(6-methoxypyridin-2-yl)-4H-1,2,4-triazol-3-yl)-1-methoxypropane-2-sulfonamide], the half-maximal effective concentration (EC50) is 37 nM.

As to `COc1cccc(-c2nnc(NS(=O)(=O)[C@@H](C)[C@H](OC)c3ncc(Cl)cn3)n2[C@@H](C)c2ccno2)n1` (mixture of isomers) [Example 200.0, (1R,2S)-1-(5-chloro-2-pyrimidinyl)-1-methoxy-N-(5-(6-methoxy-2-pyridinyl)-4-((1R)-1-(1,2-oxazol-5-yl)ethyl)-4H-1,2,4-triazol-3-yl)-2-propanesulfonamide and (1R,2S)-1-(5-chloro-2-pyrimidinyl)-1-methoxy-N-(5-(6-methoxy-2-pyridinyl)-4-((1S)-1-(1,2-oxazol-5-yl)ethyl)-4H-1,2,4-triazol-3-yl)-2-propanesulfonamide], the EC50 was 0.87 nM. For `COc1cccc(-c2nnc(NS(=O)(=O)[C@@H](C)[C@H](C)c3ncc(Cl)cn3)n2[C@@H](C)c2ccno2)n1` (mixture of isomers) [Example 201.0, (2S,3R)-3-(5-chloro-2-pyrimidinyl)-N-(5-(6-methoxy-2-pyridinyl)-4-((1R)-1-(1,2-oxazol-5-yl)ethyl)-4H-1,2,4-triazol-3-yl)-2-butanesulfonamide and (2S,3R)-3-(5-chloro-2-pyrimidinyl)-N-(5-(6-methoxy-2-pyridinyl)-4-((1S)-1-(1,2-oxazol-5-yl)ethyl)-4H-1,2,4-triazol-3-yl)-2-butanesulfonamide], the 50% effective concentration (EC50) was 3.5 nM. With `CC[C@H](c1c(C)noc1C)n1c(NS(=O)(=O)[C@@H](C)[C@H](OC)c2cnc(C)cn2)nnc1-c1cccc(OC)n1` (mixture of isomers) [Example 208.0, (1R,2S)-N-(4-((1R)-1-(3,5-dimethyl-1,2-oxazol-4-yl)propyl)-5-(6-methoxy-2-pyridinyl)-4H-1,2,4-triazol-3-yl)-1-methoxy-1-(5-methyl-2-pyrazinyl)-2-propanesulfonamide and (1R,2S)-N-(4-((1S)-1-(3,5-dimethyl-1,2-oxazol-4-yl)propyl)-5-(6-methoxy-2-pyridinyl)-4H-1,2,4-triazol-3-yl)-1-methoxy-1-(5-methyl-2-pyrazinyl)-2-propanesulfonamide], the EC50 was determined as 42 nM. Turning to `CC[C@H](c1c(C)noc1C)n1c(NS(=O)(=O)[C@@H](C)[C@@H](OC(C)C)c2ncc(C)cn2)nnc1-c1cccc(OC)n1` (mixture of isomers) [Example 209.0, (1S,2S)-N-(4-((1R)-1-(3,5-dimethyl-1,2-oxazol-4-yl)propyl)-5-(6-methoxy-2-pyridinyl)-4H-1,2,4-triazol-3-yl)-1-(5-methyl-2-pyrimidinyl)-1-(2-propanyloxy)-2-propanesulfonamide and (1S,2S)-N-(4-((1S)-1-(3,5-dimethyl-1,2-oxazol-4-yl)propyl)-5-(6-methoxy-2-pyridinyl)-4H-1,2,4-triazol-3-yl)-1-(5-methyl-2-pyrimidinyl)-1-(2-propanyloxy)-2-propanesulfonamide], the EC50 came out at 14 nM. In the case of `CC[C@H](c1c(C)noc1C)n1c(NS(=O)(=O)[C@@H](C)[C@H](C)c2ncc(Cl)cn2)nnc1-c1cccc(OC)n1` (mixture of isomers) [Example 210.0, (2S,3R)-3-(5-chloro-2-pyrimidinyl)-N-(4-((1R)-1-(3,5-dimethyl-1,2-oxazol-4-yl)propyl)-5-(6-methoxy-2-pyridinyl)-4H-1,2,4-triazol-3-yl)-2-butanesulfonamide and (2S,3R)-3-(5-chloro-2-pyrimidinyl)-N-(4-((1S)-1-(3,5-dimethyl-1,2-oxazol-4-yl)propyl)-5-(6-methoxy-2-pyridinyl)-4H-1,2,4-triazol-3-yl)-2-butanesulfonamide] it was 5.3 nM; in that of `CC[C@H](c1c(C)noc1C)n1c(NS(=O)(=O)[C@@H](C)[C@H](OC)c2ncc(Cl)cn2)nnc1-c1cccc(OC)n1` (mixture of isomers) [Example 211.0, (1R,2S)-1-(5-chloro-2-pyrimidinyl)-N-(4-((1R)-1-(3,5-dimethyl-1,2-oxazol-4-yl)propyl)-5-(6-methoxy-2-pyridinyl)-4H-1,2,4-triazol-3-yl)-1-methoxy-2-propanesulfonamide and (1R,2S)-1-(5-chloro-2-pyrimidinyl)-N-(4-((1S)-1-(3,5-dimethyl-1,2-oxazol-4-yl)propyl)-5-(6-methoxy-2-pyridinyl)-4H-1,2,4-triazol-3-yl)-1-methoxy-2-propanesulfonamide], 1.8 nM. Consider `COc1cccc(-c2nnc(NS(=O)(=O)[C@@H](C)[C@@H](OC(C)C)c3ncc(C)cn3)n2[C@H](c2conc2C)C2CC2)n1` (mixture of isomers) [Example 226.0, (1S,2S)-N-(4-((R)-cyclopropyl(3-methyl-1,2-oxazol-4-yl)methyl)-5-(6-methoxy-2-pyridinyl)-4H-1,2,4-triazol-3-yl)-1-(5-methyl-2-pyrimidinyl)-1-(2-propanyloxy)-2-propanesulfonamide and (1S,2S)-N-(4-((S)-cyclopropyl(3-methyl-1,2-oxazol-4-yl)methyl)-5-(6-methoxy-2-pyridinyl)-4H-1,2,4-triazol-3-yl)-1-(5-methyl-2-pyrimidinyl)-1-(2-propanyloxy)-2-propanesulfonamide], for which the EC50 worked out at 0.88 nM. Turning to `CC[C@@H](c1conc1C)n1c(NS(=O)(=O)[C@@H](C)[C@H](C)c2ncc(Cl)cn2)nnc1-c1cccc(OC)n1` (mixture of isomers) [Example 227.0, (2S,3R)-3-(5-chloro-2-pyrimidinyl)-N-(5-(6-methoxy-2-pyridinyl)-4-((1R)-1-(3-methyl-1,2-oxazol-4-yl)propyl)-4H-1,2,4-triazol-3-yl)-2-butanesulfonamide and (2S,3R)-3-(5-chloro-2-pyrimidinyl)-N-(5-(6-methoxy-2-pyridinyl)-4-((1S)-1-(3-methyl-1,2-oxazol-4-yl)propyl)-4H-1,2,4-triazol-3-yl)-2-butanesulfonamide], the half-maximal effective concentration (EC50) was 4.5 nM.

By EC50 is commonly meant the concentration that produces a half-maximal response.
